Assay results: a compilation of properties of binary mixtures (doi:10.1021/je950194b)

Test: excess molar enthalpy (molar enthalpy of mixing); xn = mol fraction of the nth substance listed
Conditions: 313.15 K, 100 kPa

`CCC(=O)O` + Cc1cc(C)cc(C)c1 gave an excess molar enthalpy (x1 = 0.0444) of 0.0055 kcal/mol, an excess molar enthalpy (x1 = 0.0548) of 0.00574 kcal/mol and an excess molar enthalpy (x1 = 0.0718) of 0.00598 kcal/mol. The excess molar enthalpy (x1 = 0.134) was 0.00335 kcal/mol, the excess molar enthalpy (x1 = 0.1884) was -0.000239 kcal/mol and the excess molar enthalpy (x1 = 0.2364) was -0.00287 kcal/mol. For the same molecule, the excess molar enthalpy (x1 = 0.3171) was -0.00526 kcal/mol, the excess molar enthalpy (x1 = 0.3824) was -0.00717 kcal/mol and the excess molar enthalpy (x1 = 0.4815) was -0.00813 kcal/mol. The excess molar enthalpy (x1 = 0.5532) was -0.0086 kcal/mol, the excess molar enthalpy (x1 = 0.65) was -0.00813 kcal/mol and the excess molar enthalpy (x1 = 0.7359) was -0.00645 kcal/mol. It also gave an excess molar enthalpy (x1 = 0.7879) of -0.00574 kcal/mol, an excess molar enthalpy (x1 = 0.8479) of -0.0043 kcal/mol and an excess molar enthalpy (x1 = 0.9176) of -0.00287 kcal/mol. It also gave an excess molar enthalpy (x1 = 0.9571) of -0.00191 kcal/mol.
`CCC(=O)O` + CCCCCCCC showed an excess molar enthalpy (x1 = 0.1539) of 0.065 kcal/mol, an excess molar enthalpy (x1 = 0.2144) of 0.0856 kcal/mol and an excess molar enthalpy (x1 = 0.2668) of 0.104 kcal/mol. For the same molecule, the excess molar enthalpy (x1 = 0.3531) was 0.126 kcal/mol, the excess molar enthalpy (x1 = 0.4212) was 0.138 kcal/mol and the excess molar enthalpy (x1 = 0.5219) was 0.146 kcal/mol. For the same molecule, the excess molar enthalpy (x1 = 0.5928) was 0.146 kcal/mol, the excess molar enthalpy (x1 = 0.7661) was 0.11 kcal/mol and the excess molar enthalpy (x1 = 0.8137) was 0.0932 kcal/mol. It also gave an excess molar enthalpy (x1 = 0.8676) of 0.0715 kcal/mol, an excess molar enthalpy (x1 = 0.8973) of 0.0566 kcal/mol and an excess molar enthalpy (x1 = 0.9291) of 0.0406 kcal/mol.
With `CCC(=O)O` + C1CCOCC1 the excess molar enthalpy (x1 = 0.0528) was -0.0263 kcal/mol, the excess molar enthalpy (x1 = 0.1003) was -0.0504 kcal/mol and the excess molar enthalpy (x1 = 0.1433) was -0.0679 kcal/mol. It also gave an excess molar enthalpy (x1 = 0.1823) of -0.0813 kcal/mol, an excess molar enthalpy (x1 = 0.3085) of -0.112 kcal/mol and an excess molar enthalpy (x1 = 0.4009) of -0.121 kcal/mol. The excess molar enthalpy (x1 = 0.6675) was -0.101 kcal/mol, the excess molar enthalpy (x1 = 0.8006) was -0.0648 kcal/mol and the excess molar enthalpy (x1 = 0.8893) was -0.0335 kcal/mol. It also gave an excess molar enthalpy (x1 = 0.9146) of -0.0229 kcal/mol, an excess molar enthalpy (x1 = 0.9414) of -0.0127 kcal/mol and an excess molar enthalpy (x1 = 0.9698) of -0.00598 kcal/mol.
Work on `CCC(=O)O` + C1CCCCC1 yielded an excess molar enthalpy (x1 = 0.0571) of 0.0337 kcal/mol, an excess molar enthalpy (x1 = 0.108) of 0.0657 kcal/mol and an excess molar enthalpy (x1 = 0.1537) of 0.0913 kcal/mol. The excess molar enthalpy (x1 = 0.195) was 0.112 kcal/mol, the excess molar enthalpy (x1 = 0.3264) was 0.154 kcal/mol and the excess molar enthalpy (x1 = 0.4209) was 0.168 kcal/mol. It also gave an excess molar enthalpy (x1 = 0.4921) of 0.171 kcal/mol, an excess molar enthalpy (x1 = 0.5924) of 0.167 kcal/mol and an excess molar enthalpy (x1 = 0.6856) of 0.147 kcal/mol. For the same molecule, the excess molar enthalpy (x1 = 0.744) was 0.129 kcal/mol, the excess molar enthalpy (x1 = 0.8134) was 0.0982 kcal/mol and the excess molar enthalpy (x1 = 0.8971) was 0.0507 kcal/mol. The excess molar enthalpy (x1 = 0.9208) was 0.0359 kcal/mol and the excess molar enthalpy (x1 = 0.9458) was 0.0196 kcal/mol.
For `CCC(=O)O` + C1COCCO1, the excess molar enthalpy (x1 = 0.087) was -0.0294 kcal/mol, the excess molar enthalpy (x1 = 0.125) was -0.0351 kcal/mol and the excess molar enthalpy (x1 = 0.16) was -0.039 kcal/mol. The excess molar enthalpy (x1 = 0.2222) was -0.0406 kcal/mol, the excess molar enthalpy (x1 = 0.2759) was -0.0392 kcal/mol and the excess molar enthalpy (x1 = 0.3636) was -0.0318 kcal/mol. For the same molecule, the excess molar enthalpy (x1 = 0.4325) was -0.0239 kcal/mol, the excess molar enthalpy (x1 = 0.5334) was -0.0103 kcal/mol and the excess molar enthalpy (x1 = 0.6957) was 0.0131 kcal/mol. For the same molecule, the excess molar enthalpy (x1 = 0.7742) was 0.0206 kcal/mol, the excess molar enthalpy (x1 = 0.8728) was 0.0203 kcal/mol and the excess molar enthalpy (x1 = 0.9014) was 0.0174 kcal/mol. It also gave an excess molar enthalpy (x1 = 0.9648) of 0.00813 kcal/mol.
